Measurements: patent US10173996B2, “Histone demethylase inhibitors” (CELGENE QUANTICEL RESEARCH, INC., priority 2012, dated 2019)

These compounds were tested on KDM5A and KDM5B (tri-methyl H3K4, ZR-75-1 breast cancer cell line) (assay: In vitro cell-based assay: tri-methyl H3K4 immuno-blotting in ZR-75-1 breast cancer cells). Conditions: Homo sapiens, 72 hours with test compound, read-out: Cellular IC50.
Text: This quantitative immuno-blotting assay measures the amount tri-methylated histone H3 at amino acid Lysine number 4, a specific substrate […] of the direct enzymatic activity of the histone demethylases KDM5A and KDM5B from extracts of the ZR-75-1 breast cancer cell line.
This assay is a fluorometric immunoassay for the quantification of tri-methyl H3K4 extracted from cells treated with test compound and is used as a measure of the cellular inhibition of KDM5A/B.
ZR-75-1(PTEN null, ER+) breast cancer cells numbering 50,000 (ATCC) were seeded into each well of a 96-well tissue culture treated plate and then exposed to an 11 point dilution of test compound with final concentration ranges of test compound ranging from […] to 10 nM. […] Extracts were prepared containing all of the cellular histone material using detergent based lysis and sonication methods. These lysates were subsequently normalized for total protein content using a colorimetric bicinchonic acid assay (MicroBCA Pierce/Thermo Scientific). Normalized cell extracts were then subjected to typical immuno-blotting procedures using NuPage reagents (Life Technologies). Electrophoretically separated histones were then transferred and immobilized using polyvinylidene difluoride membrane (Immobilon-FL Millipore). The amount of tri-methylated lysine 4 of histone H3 was detected using an antibody specific to the tri-methylated state (Cell Signaling Technologies) and quantified on an infrared imager using a densitometry software package (Odyssey CLx, Image Studio, Li-Cor). This background subtracted densitometry value was reported as a ration of the GAPDH amount for that sample and then calculated as a percent of the DMSO treated sample. The software package XL-fit (IDBS) was then used to calculate a relative IC50 value for the dilution series of a given test compound according to the equation: fit=(D+((Vmax*(x^n))/((x^n)+(Km^n)))).
Compound `Cc1ccc(COc2ccnn2-c2cc(C(=O)O)ccn2)cc1F` [Example 93, 2-[5-[(3-fluoro-4-methylphenyl)methoxy]pyrazol-1-yl]pyridine-4-carboxylic acid] has an IC50 of 100 to 1000 nM. In the case of `O=C(O)c1ccnc(-n2nccc2OCc2ccc(Cl)c(OCc3ccc(F)cc3)c2)c1` [Example 138, 2-[5-[[4-chloro-3-[(4-fluorophenyl)methoxy]phenyl]methoxy]pyrazol-1-yl]pyridine-4-carboxylic acid], the IC50 is reported as 1000 to 10000 nM. For `Cc1ccc(COc2ccnn2-c2cc(C(=O)O)ccn2)c(C)c1` [Example 132, 2-[5-[(2,4-dimethylphenyl)methoxy]pyrazol-1-yl]pyridine-4-carboxylic acid], the IC50 was 100 to 1000 nM. Work on `Cc1ccc(COc2ccnn2-c2cc(C(=O)O)ccn2)c(Cl)c1` [Example 130, 2-[5-[(2-chloro-4-methylphenyl)methoxy]pyrazol-1-yl]pyridine-4-carboxylic acid] yielded an IC50 of 1000 to 10000 nM. In the case of `COC(=O)c1ccnc(-n2nccc2OCc2ccc(Cl)cc2)c1` [Example 64, Methyl 2-{5-[(4-chlorobenzyl)oxy]-1H-pyrazol-1-yl}pyridine-4-carboxylate], the IC50 is reported as 100 to 1000 nM. For `O=C(O)c1ccnc(-n2nccc2OCC2CCC(F)(F)CC2)c1` [Example 71, 2-{5-[(4,4-difluorocyclohexyl)methoxy]-1H-pyrazol-1-yl}pyridine-4-carboxylic acid], the IC50 was 1000 to 10000 nM. In the case of `O=C(O)c1ccnc(-n2nccc2OCc2ccccc2)c1` [Example 39, 2-(5-(benzyloxy)-1H-pyrazol-1-yl)isonicotinic acid], the IC50 is reported as 1000 to 10000 nM. In the case of `Cc1ccc(COc2ccnn2-c2cc(C(=O)O)ccn2)c(F)c1F` [Example 94, 2-[5-[(2,3-difluoro-4-methylphenyl)methoxy]pyrazol-1-yl]pyridine-4-carboxylic acid], the IC50 is reported as 1000 to 10000 nM. In the case of `O=C(O)c1ccnc(-n2nccc2OCc2ccc(F)c(Cl)c2)c1` [Example 76, 2-{5-[(3-chloro-4-fluorobenzyl)oxy]-1H-pyrazol-1-yl}pyridine-4-carboxylic acid], the IC50 is reported as 1000 to 10000 nM. With `CCc1ccc(COc2ccnn2-c2cc(C(=O)O)ccn2)cc1` [Example 56, 2-{5-[(4-ethylbenzyl)oxy]-1H-pyrazol-1-yl}pyridine-4-carboxylic acid] the IC50 was 100 to 1000 nM. `COc1cc(Cl)ccc1COc1ccnn1-c1cc(C(=O)O)ccn1` [Example 90, 2-[5-[(4-chloro-2-methoxyphenyl)methoxy]pyrazol-1-yl]pyridine-4-carboxylic acid] was tested, and the IC50 was 100 to 1000 nM. `O=C(O)c1ccnc(-n2nccc2OCc2ccc(Cl)cc2)c1` [Example 53, 2-{5-[(4-chlorobenzyl)oxy]-1H-pyrazol-1-yl}pyridine-4-carboxylic acid] showed an IC50 of 100 to 1000 nM. `Cc1ccc(COc2ccnn2-c2cc(C(=O)O)ccn2)cc1Cl` [Example 92, 2-[5-[(3-chloro-4-methylphenyl)methoxy]pyrazol-1-yl]pyridine-4-carboxylic acid] showed an IC50 of 100 to 1000 nM. With `O=C(O)c1ccnc(-n2nccc2OCc2ccc(F)cc2CCc2ccc(F)cc2)c1` [Example 121, 2-[5-[[4-fluoro-2-[2-(4-fluorophenyl)ethyl]phenyl]methoxy]pyrazol-1-yl]pyridine-4-carboxylic acid] the IC50 was 1000 to 10000 nM. `O=C(O)c1ccnc(-n2nccc2OCc2ccc(Cl)c(OCC(F)(F)F)c2)c1` [Example 141, 2-[5-[[4-chloro-3-(2,2,2-trifluoroethoxy)phenyl]methoxy]pyrazol-1-yl]pyridine-4-carboxylic acid] showed an IC50 of 1000 to 10000 nM. In the case of `O=C(O)c1ccnc(-n2nccc2OCc2ccc(F)cc2F)c1` [Example 86, 2-[5-[(2,4-difluorophenyl)methoxy]pyrazol-1-yl]pyridine-4-carboxylic acid], the IC50 is reported as 1000 to 10000 nM. `O=C(O)c1ccnc(-n2nccc2OCc2ccc(Cl)cc2F)c1` [Example 75, 2-{5-[(4-chloro-2-fluorobenzyl)oxy]-1H-pyrazol-1-yl}pyridine-4-carboxylic acid] gave an IC50 of 1000 to 10000 nM. `Cc1ccc(COc2ccnn2-c2cc(C(=O)O)ccn2)c(C#N)c1` [Example 134, 2-[5-[(2-cyano-4-methylphenyl)methoxy]pyrazol-1-yl]pyridine-4-carboxylic acid] was tested, and the IC50 was 1000 to 10000 nM. `O=C(O)c1ccnc(-n2nccc2OCc2ccc(F)cc2)c1` [Example 40, 2-{5-[(4-fluorobenzyl)oxy]-1H-pyrazol-1-yl}pyridine-4-carboxylic acid] gave an IC50 of 100 to 1000 nM. With `O=C(O)c1ccnc(-n2nccc2OCc2ccc(F)cc2OCc2ccc(F)cc2)c1` [Example 118, 2-[5-[[4-fluoro-2-[(4-fluorophenyl)methoxy]phenyl]methoxy]pyrazol-1-yl]pyridine-4-carboxylic acid] the IC50 was 1000 to 10000 nM. `COc1cc(I)ccc1COc1ccnn1-c1cc(C(=O)O)ccn1` [Example 145, 2-[5-[(4-iodo-2-methoxyphenyl)methoxy]pyrazol-1-yl]pyridine-4-carboxylic acid] was tested, and the IC50 was 1000 to 10000 nM. `COC(=O)c1ccnc(-n2nccc2OCc2ccc(F)c(F)c2)c1` [Example 63, methyl 2-{5-[(3,4-difluorobenzyl)oxy]-1H-pyrazol-1-yl}pyridine-4-carboxylate] was tested, and the IC50 was 100 to 1000 nM. `CCc1ccc(COc2ccnn2-c2cc(C(=O)O)ccn2)c(F)c1` [Example 151, 2-[5-[(4-ethyl-2-fluorophenyl)methoxy]pyrazol-1-yl]pyridine-4-carboxylic acid] was tested, and the IC50 was 1000 to 10000 nM. `CCc1cc(C#N)ccc1COc1ccnn1-c1cc(C(=O)O)ccn1` [Example 126, 2-[5-[(4-cyano-2-ethylphenyl)methoxy]pyrazol-1-yl]pyridine-4-carboxylic acid] was tested, and the IC50 was > 10000 nM. Work on `Cc1cc(I)ccc1COc1ccnn1-c1cc(C(=O)O)ccn1` [Example 144, 2-[5-[(4-iodo-2-methylphenyl)methoxy]pyrazol-1-yl]pyridine-4-carboxylic acid] yielded an IC50 of 1000 to 10000 nM. Work on `Cc1ccc(COc2ccnn2-c2cc(C(=O)O)ccn2)cc1` [Example 55, 2-{5-[(4-methylbenzyl)oxy]-1H-pyrazol-1-yl}pyridine-4-carboxylic acid] yielded an IC50 of 100 to 1000 nM. For `O=C(O)c1ccnc(-n2nccc2OCc2ccc(F)c(F)c2)c1` [Example 52, 2-{5-[(3,4-difluorobenzyl)oxy]-1H-pyrazol-1-yl}pyridine-4-carboxylic acid], the IC50 was 100 to 1000 nM. `CC(Oc1cc(Cl)ccc1COc1ccnn1-c1cc(C(=O)O)ccn1)c1ccccc1` (centres unmarked) [Example 136, 2-[5-[[4-chloro-2-(1-phenylethoxy)phenyl]methoxy]pyrazol-1-yl]pyridine-4-carboxylic acid] gave an IC50 of 1000 to 10000 nM. `CCc1cc(F)ccc1COc1ccnn1-c1cc(C(=O)O)ccn1` [Example 129, 2-[5-[(2-ethyl-4-fluorophenyl)methoxy]pyrazol-1-yl]pyridine-4-carboxylic acid] was tested, and the IC50 was 1000 to 10000 nM. For `O=C(O)c1ccnc(-n2nccc2OCc2ccc(Cl)c(OCC3CC3)c2)c1` [Example 140, 2-[5-[[4-chloro-3-(cyclopropylmethoxy)phenyl]methoxy]pyrazol-1-yl]pyridine-4-carboxylic acid], the IC50 was 1000 to 10000 nM. In the case of `Cc1ccc(COc2ccnn2-c2cc(C(=O)O)ccn2)c(F)c1` [Example 131, 2-[5-[(2-fluoro-4-methylphenyl)methoxy]pyrazol-1-yl]pyridine-4-carboxylic acid], the IC50 is reported as 1000 to 10000 nM. Work on `O=C(O)c1ccnc(-n2nccc2OCc2cccc(Cl)c2)c1` [Example 58, 2-{5-[(3-chlorobenzyl)oxy]-1H-pyrazol-1-yl}pyridine-4-carboxylic acid] yielded an IC50 of 100 to 1000 nM. In the case of `Cc1cc(F)ccc1COc1ccnn1-c1cc(C(=O)O)ccn1` [Example 128, 2-[5-[(4-fluoro-2-methylphenyl)methoxy]pyrazol-1-yl]pyridine-4-carboxylic acid], the IC50 is reported as 100 to 1000 nM. `COC(=O)c1ccnc(-n2nccc2OCc2ccc(C#N)cc2)c1` [Example 98, methyl 2-[5-[(4-cyanophenyl)methoxy]pyrazol-1-yl]pyridine-4-carboxylate] was tested, and the IC50 was 1000 to 10000 nM. `Cc1cc(Br)ccc1COc1ccnn1-c1cc(C(=O)O)ccn1` [Example 142, 2-[5-[(4-bromo-2-methylphenyl)methoxy]pyrazol-1-yl]pyridine-4-carboxylic acid] gave an IC50 of 1000 to 10000 nM. With `CC(Oc1cc(F)ccc1COc1ccnn1-c1cc(C(=O)O)ccn1)c1ccccc1` (centres unmarked) [Example 137, 2-[5-[[4-fluoro-2-(1-phenylethoxy)phenyl]methoxy]pyrazol-1-yl]pyridine-4-carboxylic acid] the IC50 was 1000 to 10000 nM. With `N#Cc1ccc(COc2ccnn2-c2cc(C(=O)O)ccn2)cc1` [Example 99, 2-[5-[(4-cyanophenyl)methoxy]pyrazol-1-yl]pyridine-4-carboxylic acid] the IC50 was 100 to 1000 nM. In the case of `O=C(O)c1ccnc(-n2nccc2OCc2cccc(F)c2)c1` [Example 41, 2-{5-[(3-fluorobenzyl)oxy]-1H-pyrazol-1-yl}pyridine-4-carboxylic acid], the IC50 is reported as > 10000 nM.
